Measured values: PubChem BioAssay AID1964 (Broad Institute, 2009)
Results filed as inconclusive are left out. The source made the active and inactive calls. No rule for the calls is given here.

These compounds were tested against RNA-binding protein pos-1 (Caenorhabditis elegans) (UniProt G5EF15) (assay: inhibitors of POS-1/mex-3 RNA binding, dose response, biochemical, fluorescence polarization (AID 1964)). Conditions: POS-1/mex-3 RNA fluorescence polarization.
RNA-binding protein pos-1 (Caenorhabditis elegans), sequence (G5EF15 whole entry, looked up): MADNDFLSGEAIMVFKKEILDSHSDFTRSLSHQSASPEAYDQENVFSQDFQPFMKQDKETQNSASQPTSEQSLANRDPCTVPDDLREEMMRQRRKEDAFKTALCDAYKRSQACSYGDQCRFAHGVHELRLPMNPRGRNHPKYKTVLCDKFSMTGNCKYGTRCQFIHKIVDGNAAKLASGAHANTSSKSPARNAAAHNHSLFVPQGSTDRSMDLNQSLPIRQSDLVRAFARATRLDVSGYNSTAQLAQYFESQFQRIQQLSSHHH

Row | SMILES | IC50
1 | Cc1cc(/C=C2/C(=O)NC(=O)N(Cc3ccco3)C2=O)c(C)n1-c1ccc(C(=O)O)cc1 | > 30 µM (inactive)
2 | C[C@H]1c2cccc(O)c2C(O)=C2C(=O)[C@]3(O)C(O)=C(C(N)=O)C(=O)[C@@H](N(C)C)C3[C@@H](O)C21 (stereo not given in full) | > 30 µM (inactive)
3 | Cc1cc(/C=C2\C(=O)NC(=O)N(Cc3ccco3)C2=O)c(C)n1-c1ccc(C(=O)O)cc1 | > 30 µM (inactive)
4 | CCC(C)/C=C(C)/C=C/C1=CC2=C(Cl)C(=O)C(C)(OC(C)=O)C(=O)C2=CO1 (stereo not given) | > 30 µM (inactive)
5 | C[C@H]1c2cccc(O)c2C(O)=C2C(=O)[C@]3(O)C(O)=C(C(N)=O)C(=O)[C@@H](N(C)C)[C@@H]3[C@@H](O)[C@@H]21 | > 30 µM (inactive)
